Test results reported in PubChem BioAssay (NCI).
“And” between values parts separate entries of the source, which are not always exact repeats. Equal entries are not always repeated.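 Briefly, cells in 96-well plates were exposed to five compound concentrations for 48 h, and endpoints were estimated by linear interpolation. At the GI50, growth is halved. TGI denotes the concentration required for complete inhibition of growth.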 Where a SMILES comes first, the peptide text is derived from it. [ ]: non-standard residue; d: D form. Phe(F5) = N[CH](Cc1c(F)c(F)c(F)c(F)c1F)C(=O)O

Legend:
Assay in all cases: NCI anticancer screen, dose series, 48 h
SF-268 CNS = test system: SF-268 CNS
RPMI-8226 leukemia = test system: RPMI-8226 leukemia
SK-MEL-5 melanoma = test system: SK-MEL-5 melanoma
MCF7 breast = test system: MCF7 breast
786-0 renal = test system: 786-0 renal
UACC-257 melanoma = test system: UACC-257 melanoma
MDA-MB-231 breast = test system: MDA-MB-231 breast
SF-539 CNS = test system: SF-539 CNS
U251 CNS = test system: U251 CNS
SF-295 CNS = test system: SF-295 CNS

Structure (SMILES) | GI50 (SF-268 CNS) | TGI (SF-268 CNS) | GI50 (RPMI-8226 leukemia) [µM] | TGI (RPMI-8226 leukemia) | GI50 (SK-MEL-5 melanoma) | TGI (SK-MEL-5 melanoma) | GI50 (MCF7 breast) [µM] | TGI (MCF7 breast) [µM] | GI50 (786-0 renal) | TGI (786-0 renal) | GI50 (UACC-257 melanoma) [µM] | TGI (UACC-257 melanoma) | GI50 (MDA-MB-231 breast) [µM] | TGI (MDA-MB-231 breast) [µM] | GI50 (SF-539 CNS) | TGI (SF-539 CNS) | GI50 (U251 CNS) | TGI (U251 CNS) | GI50 (SF-295 CNS) [µM] | TGI (SF-295 CNS)
CCN=C1C=CC(=C(c2ccc(N(C)C)cc2)c2ccc(N(C)C)cc2)c2ccccc21 | 0.114 µM | 0.981 µM | 0.0165 | 0.0555 µM | 0.0609 µM | 0.213 µM | 0.141 | 1.09 | 0.0866 µM | 0.37 µM | 0.0234 | 0.0592 µM | 0.171 | 1.3 | 0.124 µM | 0.53 µM | 0.0297 µM | 0.198 µM | 0.122 | 0.423 µM
Fc1ccc(-c2nc3n(c2-c2ccncc2)CCS3)cc1 | > 25 µM | > 25 µM | > 25 | > 25 µM | > 18 µM | > 25 µM | > 25 | > 25 | > 25 µM | > 25 µM | > 25 | > 25 µM | > 25 | > 25 | > 25 µM | > 25 µM | > 25 µM | > 25 µM | > 25 | > 25 µM
CCOC(=O)Cc1c[nH]c(=S)[nH]c1=O | > 100 µM | > 100 µM | > 100 | > 100 µM | > 100 µM | > 100 µM | > 100 | > 100 | > 100 µM | > 100 µM | > 100 | > 100 µM | > 100 | > 100 | > 100 µM | > 100 µM | > 100 µM | > 100 µM | > 100 | > 100 µM
COc1cc(Cn2cc3c(c2)-c2oncc2CC3)cc(OC)c1OC | 0.0778 µM | > 55.4 µM | 0.0459 | 10.4 µM | 0.0366 µM | 0.195 µM | 0.0324 | > 100 | 0.109 µM | > 64.6 µM | 1.16 | 51.7 µM | 0.0601 | > 100 | 0.0237 µM | 0.0657 µM | 0.0387 µM | > 100 µM | 0.0185 | 0.059 µM
COC(=O)C(CC(C)C)NC(=O)C(Cc1cnc[nH]1)NC(=O)CNC(=O)C(NC(=O)C(C)NC(=O)C(Cc1c[nH]c2ccccc12)NC(=O)C(CCC(=O)O)NC(=O)C(N)Cc1c(F)c(F)c(F)c(F)c1F)C(C)C (stereo unspecified) (H-[Phe(F5)]EWAVGHL-OMe; configuration not given here) |  | > 12.5 µM | > 100 | > 100 µM |  | > 12.5 µM |  | > 12.5 | > 100 µM | > 100 µM | > 100 | > 100 µM |  | > 12.5 | > 100 µM | > 100 µM | > 100 µM | > 100 µM | > 100 | > 100 µM
O=C1C(Cl)=C(N/N=c2/[nH][nH]/c(=N/NC3=C(Cl)C(=O)c4ccccc4C3=O)c3ccccc23)C(=O)c2ccccc21 | 12.2 µM | 29.9 µM | 10.1 | 44.1 µM | 14.1 µM | 29.3 µM | 12.3 | 38.4 | 17.4 µM | 32.3 µM | 14.9 | 28.7 µM | 12 | 28.2 | 15.6 µM | 31.7 µM | 15.4 µM | 29.2 µM | 14.2 | 30.5 µM
C=C1C(=O)O[C@@H]2C1CC(=O)C(C)CC/C=C(\C)CCC[C@H](C)[C@H]2OC(C)=O (stereo partly specified) | 20.5 µM | 41.3 µM | 3.99 | 19 µM | 11.5 µM | 23.6 µM | 4.81 | 35.6 | 17 µM | 32.2 µM | 18.4 | 36.6 µM | 15.5 | 33.5 | 18.3 µM | 34.6 µM | 13.9 µM | 28.4 µM | 19.8 | 36.2 µM
COc1cccc(C2=C(c3cn(C)c4ccccc34)C(=O)NC2=O)c1 | 16.3 µM | > 25 µM | 14.1 | > 25 µM | 4.61 µM | 10.1 µM | 6.35 | > 25 | 13.4 µM | > 25 µM | 15.7 | > 25 µM | 17.4 | > 25 | 16.5 µM | > 25 µM | 10.9 µM | > 25 µM | 11 | > 25 µM
N=C(N)c1nn(C2OC(CO)C(O)C2O)c2nc[nH]c(=O)c12 (stereo unspecified) | 0.445 µM | 3.04 µM | 0.352 | 2.5 µM | 0.444 µM | 1.53 µM | 0.482 | 5.09 | 0.642 µM | 4.61 µM | 0.292 | 1.29 µM | 0.248 | 0.778 | 0.367 µM | 1.75 µM | 2.06 µM | > 37.1 µM | 0.643 | 3.26 µM
O=C(O)CS(=O)(=O)C(c1ccccc1)c1ccccc1 |  | > 100 µM |  | > 100 µM |  | > 100 µM |  | > 100 |  | > 100 µM |  | > 100 µM |  | > 100 |  | > 100 µM |  | > 100 µM |  | > 100 µM
CC1Oc2cc3c(-c4c(O)cc(O)c5c(O)c6c(cc45)OC(C)C(C)C6=O)c(O)cc(O)c3c(O)c2C(=O)C1C (stereo unspecified) |  | 2.46 µM |  | 0.469 µM |  | 0.461 µM |  | 3.75 |  | 1.21 µM |  | 1.68 µM |  | 0.378 |  | 0.645 µM |  | 0.404 µM |  | 0.49 µM
C=C(C)[C@@H]1CC[C@]2(C(=O)NCCCN)CC[C@]3(C)[C@H](CC[C@@H]4[C@@]5(C)CC[C@H](O)C(C)(C)[C@@H]5CC[C@]43C)[C@@H]12 | 23 µM | 63.8 µM | 17.2 | 92.6 µM | 19.4 µM | 48.6 µM | 10.7 | 95.8 | 23.2 µM | 63.4 µM | 20.6 | 55.3 µM | 21.1 | 76.2 | 17.9 µM | 52 µM | 17.7 µM | 49.4 µM | 22.6 | 67.3 µM
CN(C)CCNC(=O)c1cccn2c(=O)c3cc4ccccc4cc3nc12 | 0.126 µM | 3.38 µM | 0.24 |  | 0.131 µM | 0.476 µM | 0.232 | > 100 | 0.11 µM | 14.1 µM | 0.268 | 1.14 µM | 0.316 | 8.84 | 0.161 µM | 1.6 µM | 0.114 µM | 18 µM | 0.0679 | 1.1 µM
CCc1ccc(NCc2cc(OC)c(OC)c(OC)c2)cc1 | 0.862 µM and 1.78 µM | 43.6 µM and 64.8 µM |  | 40.7 µM and 52 µM | 0.297 µM and 0.104 µM | 7.84 µM and 14.7 µM |  | 24.8 | 0.369 µM and 0.77 µM | 17.3 µM and > 38.5 µM |  | > 100 µM | 1.27 | > 100 | 0.296 µM and 0.107 µM | 1.02 µM and 0.814 µM | 0.411 µM and 0.167 µM | 22.2 µM and 11.9 µM | 0.0741 | 6.29 µM and 1.99 µM
CC12CCC=CC1CCC1C2CCC2(C)C(c3ccc(=O)oc3)CCC12O (stereo unspecified) | 0.041 µM | 0.253 µM | 0.0994 | 0.777 µM | 0.0453 µM | 0.238 µM | 0.0766 | 1.18 | 0.0618 µM | 0.357 µM | 0.255 | 0.994 µM | 0.365 | 2.57 | 0.0531 µM | 0.18 µM | 0.131 µM | 0.419 µM | 0.044 | 0.248 µM
c1ccc2[nH]c(-c3ccc(N4CCN(c5ccc(-c6nc7ccccc7[nH]6)cc5)CC4)cc3)nc2c1 | > 100 µM | > 100 µM | 40 | > 100 µM | > 100 µM | > 100 µM | 34.5 | > 100 | 36.9 µM | > 100 µM | > 100 | > 100 µM | > 100 | > 100 | > 100 µM | > 100 µM | 41.3 µM | > 100 µM | > 100 | > 100 µM
CCc1ccc(NC(=O)Nc2c[nH]c3ccccc23)cc1 | 4.24 µM | > 43.4 µM | 0.567 | > 100 µM | 32.7 µM | > 54.1 µM | 29.3 | > 65.5 | 8.55 µM | > 81.9 µM | > 38.6 | > 59.9 µM | 3.2 | > 36.9 | 3.09 µM | > 40.6 µM | 31.5 µM | > 51.7 µM | 23.8 | > 56 µM
CCN(CC)CCOc1ccc(C(=C(C)c2ccc(Cl)cc2)c2ccc(OCCN(CC)CC)cc2)cc1 | 0.659 µM | 1.49 µM | 0.668 | 1.49 µM | 0.592 µM | 1.06 µM | 0.445 | 0.966 | 0.597 µM | 1.12 µM | 0.592 | 1.17 µM | 0.581 | 1.12 | 0.59 µM | 1.1 µM | 0.582 µM | 1.15 µM | 0.614 | 1.19 µM
OCC1OC(n2ccc3c2ncn2ncnc32)C(O)C1O (stereo unspecified) | 6.83 µM | > 100 µM | 6.62 | > 100 µM | 12 µM | 50.1 µM | 0.183 | 20.4 | 2.47 µM | > 100 µM | > 70.4 | > 100 µM | 1.52 | > 100 | 2.13 µM | 57.3 µM | 47.7 µM | > 100 µM | 1.13 | > 59.8 µM
CCc1c(C)[nH]c(/C=C2\N=C(c3ccc[nH]3)C=C2OC)c1C | 0.224 µM | 11.3 µM | 0.0239 | 1.05 µM | 0.159 µM | 0.545 µM | 0.4 | 6.93 | 0.177 µM | 0.675 µM | 0.432 | 2.65 µM | 0.128 | 3.16 | 0.448 µM | 2.16 µM | 0.275 µM | 7.33 µM | 0.747 | 3.03 µM
C=CCC(N[C@H](CO)C(C)C)c1cn(C(=O)OCC)c2ccccc12 (stereo partly specified) | 33.4 µM | > 100 µM | 13.3 | 40.7 µM | 10.2 µM | 23.7 µM | 35 | > 100 | 28.4 µM | 72.7 µM | 18.3 | 44.2 µM | 13.2 | 31.2 | 28.2 µM | 69.9 µM | 27.4 µM | > 100 µM | 15.9 | 38.1 µM
CC[C@](C)(O)C(=O)O[C@H]1C(=O)O[C@@H]2C[C@H]3C(C)=CC(=O)[C@@H](O)[C@]3(C)[C@H]3[C@@]4(O)OC[C@]32[C@@H]1[C@@H](C)[C@H]4O | 0.155 µM | 0.633 µM and 0.226 µM | 0.0928 |  |  | 0.136 µM | 0.335 |  |  | 0.832 µM | 0.142 | 0.841 µM and 0.218 µM |  | 4.34 | 0.0141 µM | 0.0353 µM and 0.0895 µM |  | 0.41 µM and 0.121 µM | 0.296 | 2.6 µM and 0.351 µM
Nc1ncnc2sc(=S)c3c(c12)CCC3 | 26.9 µM | 75.6 µM | 16.8 | 55.3 µM | 4.81 µM | 29.8 µM | 25.3 | 92.8 | 46.6 µM | > 100 µM | > 100 | > 100 µM | 30.4 | > 100 | 17 µM | 52.8 µM | 45.8 µM | > 100 µM | 39.6 | > 100 µM
O=C(O)CSSCC(=O)O |  | > 100 µM |  | > 100 µM |  | > 100 µM |  | > 100 |  | > 100 µM |  | > 100 µM |  | > 100 |  | > 100 µM |  | > 100 µM |  | > 100 µM
